Reference: patent EP0110298A1, “Acridanone derivatives” (F. HOFFMANN-LA ROCHE & CO. Aktiengesellschaft, priority 1982, dated 1984)
Counter-ions that a name gives are not always drawn.

Key:
Schistosoma mansoni = test: Schistosomicidal (vermicidal) activity in infected mice, single oral treatment, worm count reduction; type: in vivo; conditions: 456 h, Albino-Mäuse infected s.c. with cercariae of a Liberia-Stamm of Schistosoma mansoni, single peroral treatment 46 days after infection, section after 19 days, dose giving 50% reduction of worm count (Probitmethode), read-out: VD50 in mg/kg p.o.
Text: Die schistosomizide Wirkung der erfindungsgemässen Stoffe kann tierexperimentell wie folgt nachgewiesen werden: • Albino-Mäuse mit einem Gewicht von 15-18 g werden subcutan mit 60 + 5 Cercarien eines Liberia-Stammes von Schistosoma mansoni infiziert. 46 Tage nach der Infektion werden die Tiere einmal mit den zu prüfenden Substanzen peroral behandelt. Pro Substanz und Dosierung werden 5-10 Tiere eingesetzt. Als Kontrolle dienen 10 unbehandelte Tiere. Die Sektion erfolgt nach 19 Tagen, worauf Wurmpaare und einzelne Würmer in Mesenterialvenen, Pfortader und Leber herauspräpariert und gezählt werden. Die vermicide Wirkung zeigt sich in einer reduzierten Zahl lebender Parasiten im Vergleich zu der Zahl in den Kontrolltieren.
Zur Auswertung wird die prozentuale Reduktion der Parasiten bei behandelten Tieren im Vergleich zu unbehandelten Kontrolltieren berechnet. Man bestimmt die VD 50 nach der Probitmethode. Die VD50 ist diejenige vermizide Dosis, welche eine 50-proz. Reduktion der Wurmzahl bewirkt.

[1] = Acute toxicity (DL50) after single oral administration to mice; conditions: mouse, in vivo, read-out: DL50 in mg/kg p.o.
Text: In der nachfolgenden Tabelle werden die Resultate dargestellt, welche mit einigen repräsentativen erfindungsgemässen Substanzen erhalten worden sind. Angegeben werden für jede der darin figurierenden Verbindung die VD50 in mg/kg p.o. und, für einige dieser Verbindungen, die DL50 in mg/kg bei einmaliger oraler Verabreichung an Mäusen.

| SMILES | ED50 (Schistosoma mansoni) | LD50 [1] |
| --- | --- | --- |
| CC(=O)N1CCN(CCn2c3ccccc3c(=NNc3nccs3)c3ccccc32)CC1 [10-[2-(4-Acetyl-1-piperazinyl)äthyl]-9-acridanon-(2-thiazolyl)hydrazon-dihydrochlorid] | 2.6 mg/kg | 312 to 625 mg/kg |
| CN(C)CCCn1c2ccccc2c(=NNc2nccs2)c2ccccc21.Cl.Cl [10-[3-(Dimethylamino)propyl]-9-acridanon-(2-thiazolyl)hydrazon-dihydrochlorid] | 3.5 mg/kg | 312 to 625 mg/kg |
| CN(C)CCn1c2ccccc2c(=NNc2nccs2)c2ccccc21 [10-[2-(Dimethylamino)äthyl]-9-acridanon-(2-thiazolyl)hydrazon-dihydrochlorid] | 4.9 mg/kg | 312 to 625 mg/kg |
| c1ccc2c(c1)c(=NN=C1NCCS1)c1ccccc1n2CCN1CCCC1 [10-[2-(1-Pyrrolidinyl)äthyl]-9-acridanon-(2-thiazolidinyliden)hydrazon] | 6.2 mg/kg | 156 to 312 mg/kg |
| CCN(CC)CCn1c2ccccc2c(=NNc2nccs2)c2ccccc21 [10-[2-(Diäthylamino)äthylJ-9-acridanon-(2-thiazolyl)hydrazon-dihydrochlorid] | 3.3 mg/kg | > 5000 mg/kg |
| CC(=O)N1CCN(CCn2c3ccccc3c(=NN=C3NCCS3)c3ccccc32)CC1 [10-[2-(4-Acetyl-1-piperazinyl)äthyl]-9-acridanon-(2-thiazolidinyliden)-hydrazon] | 3.4 mg/kg | 1250 to 2500 mg/kg |
| NCCn1c2ccccc2c(=NNc2nccs2)c2ccccc21 [10-(2-Aminoäthyl)-9-acridanon-2-thiazolyl-hydrazon-dihydrochlorid] | 2.6 mg/kg | 156 to 312 mg/kg |
| CN1CCN(CCn2c3ccccc3c(=NNc3nccs3)c3ccccc32)CC1 [10-12-(4-Methyl-1-piperazinyl)äthyl]-9-acridanon-(2-thiazolyl)hydrazon.2,5 HCl] | 2.4 mg/kg | 625 to 1250 mg/kg |
| c1ccc2c(c1)c(=NNc1nccs1)c1ccccc1n2CCN1CCCCC1 [10-[2-(1-Piperidinyl)äthyl]-9-acridanon-(2-thiazolyl)hydrazon-l,5 HCl] | 9 mg/kg | 312 to 625 mg/kg |
| CN(C)CCn1c2ccccc2c(=NN=C2NCCS2)c2ccccc21 [10-[2-(Dimethylamino)-äthyl]-9-acridanon-(2-thiazolidinyliden)hydrazon] | 6.4 mg/kg | 250 to 500 mg/kg |
| CN(C)CCCn1c2ccccc2c(=NN=C2NCCS2)c2ccccc21 [10-[3-(Dimethylamino)propyl]-9-acridanon-(2-thiazolidinyliden)hydrazon] | 4.7 mg/kg | 125 to 250 mg/kg |
| CN1CCN(CCn2c3ccccc3c(=NN=C3NCCS3)c3ccccc32)CC1 [10-[2-(4-Methyl-1-piperazinyl)äthyl]-9-acridanon-(2-thiazolidinyliden)hydrazon] | 4 mg/kg | 156 to 312 mg/kg |
| CCN(CC)CCn1c2ccccc2c(=NN=C2NCCS2)c2ccccc21 [10-[2-(Diäthylamino)äthyl]-9-acridanon-(2-thiazolidinyliden)hydrazon] | 9.5 mg/kg | 312 to 625 mg/kg |
